The values that follow are results of earlier work, collected in patent publication US20050049268A1, “Use of at least one abl, kit and/or platelet-derived growth factor receptor tyrosine kinases inhibitor for treating hair depigmentation” (priority 2001, published 2005).

For data set [1], the system named is platelet-derived growth factor (PDGF) receptor tyrosine kinases. Particulars: in vitro.
The target in the next data set is α-PDGF receptor (Homo sapiens, UniProt P16234).
The target in the next data set is β-PDGF receptor (Homo sapiens, UniProt P09619).
β-PDGF receptor, sequence (P09619 33-1106): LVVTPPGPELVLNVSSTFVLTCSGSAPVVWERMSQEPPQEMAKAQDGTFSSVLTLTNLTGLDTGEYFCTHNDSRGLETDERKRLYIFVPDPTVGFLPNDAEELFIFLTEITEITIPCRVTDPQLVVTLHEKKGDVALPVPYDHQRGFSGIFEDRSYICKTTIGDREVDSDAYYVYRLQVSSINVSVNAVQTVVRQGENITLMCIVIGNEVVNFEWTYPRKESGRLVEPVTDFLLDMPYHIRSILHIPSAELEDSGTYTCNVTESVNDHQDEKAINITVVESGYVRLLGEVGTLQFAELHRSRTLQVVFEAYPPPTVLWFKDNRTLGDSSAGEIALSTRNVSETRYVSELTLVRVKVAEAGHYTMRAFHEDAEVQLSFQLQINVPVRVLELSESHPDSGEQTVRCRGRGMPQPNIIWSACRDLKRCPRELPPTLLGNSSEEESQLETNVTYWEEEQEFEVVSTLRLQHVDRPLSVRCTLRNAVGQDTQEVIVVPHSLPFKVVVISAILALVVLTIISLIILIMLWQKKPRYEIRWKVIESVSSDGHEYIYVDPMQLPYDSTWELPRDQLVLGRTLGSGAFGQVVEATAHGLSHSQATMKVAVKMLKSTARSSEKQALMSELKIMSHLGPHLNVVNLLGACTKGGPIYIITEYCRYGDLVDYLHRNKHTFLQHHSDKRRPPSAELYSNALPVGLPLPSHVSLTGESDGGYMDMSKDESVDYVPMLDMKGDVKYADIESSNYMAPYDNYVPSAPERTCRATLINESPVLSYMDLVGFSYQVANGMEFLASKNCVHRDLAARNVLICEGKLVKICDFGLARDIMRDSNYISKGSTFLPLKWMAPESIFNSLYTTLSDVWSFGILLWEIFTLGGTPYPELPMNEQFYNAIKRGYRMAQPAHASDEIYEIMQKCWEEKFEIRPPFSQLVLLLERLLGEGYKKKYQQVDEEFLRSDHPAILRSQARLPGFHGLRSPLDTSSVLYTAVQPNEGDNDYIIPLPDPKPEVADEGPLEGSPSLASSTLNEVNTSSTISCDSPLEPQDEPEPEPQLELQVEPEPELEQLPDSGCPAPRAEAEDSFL
For a further data set, the target named is c-Met (Homo sapiens, UniProt P08581).
c-Met, sequence (P08581 25-1390): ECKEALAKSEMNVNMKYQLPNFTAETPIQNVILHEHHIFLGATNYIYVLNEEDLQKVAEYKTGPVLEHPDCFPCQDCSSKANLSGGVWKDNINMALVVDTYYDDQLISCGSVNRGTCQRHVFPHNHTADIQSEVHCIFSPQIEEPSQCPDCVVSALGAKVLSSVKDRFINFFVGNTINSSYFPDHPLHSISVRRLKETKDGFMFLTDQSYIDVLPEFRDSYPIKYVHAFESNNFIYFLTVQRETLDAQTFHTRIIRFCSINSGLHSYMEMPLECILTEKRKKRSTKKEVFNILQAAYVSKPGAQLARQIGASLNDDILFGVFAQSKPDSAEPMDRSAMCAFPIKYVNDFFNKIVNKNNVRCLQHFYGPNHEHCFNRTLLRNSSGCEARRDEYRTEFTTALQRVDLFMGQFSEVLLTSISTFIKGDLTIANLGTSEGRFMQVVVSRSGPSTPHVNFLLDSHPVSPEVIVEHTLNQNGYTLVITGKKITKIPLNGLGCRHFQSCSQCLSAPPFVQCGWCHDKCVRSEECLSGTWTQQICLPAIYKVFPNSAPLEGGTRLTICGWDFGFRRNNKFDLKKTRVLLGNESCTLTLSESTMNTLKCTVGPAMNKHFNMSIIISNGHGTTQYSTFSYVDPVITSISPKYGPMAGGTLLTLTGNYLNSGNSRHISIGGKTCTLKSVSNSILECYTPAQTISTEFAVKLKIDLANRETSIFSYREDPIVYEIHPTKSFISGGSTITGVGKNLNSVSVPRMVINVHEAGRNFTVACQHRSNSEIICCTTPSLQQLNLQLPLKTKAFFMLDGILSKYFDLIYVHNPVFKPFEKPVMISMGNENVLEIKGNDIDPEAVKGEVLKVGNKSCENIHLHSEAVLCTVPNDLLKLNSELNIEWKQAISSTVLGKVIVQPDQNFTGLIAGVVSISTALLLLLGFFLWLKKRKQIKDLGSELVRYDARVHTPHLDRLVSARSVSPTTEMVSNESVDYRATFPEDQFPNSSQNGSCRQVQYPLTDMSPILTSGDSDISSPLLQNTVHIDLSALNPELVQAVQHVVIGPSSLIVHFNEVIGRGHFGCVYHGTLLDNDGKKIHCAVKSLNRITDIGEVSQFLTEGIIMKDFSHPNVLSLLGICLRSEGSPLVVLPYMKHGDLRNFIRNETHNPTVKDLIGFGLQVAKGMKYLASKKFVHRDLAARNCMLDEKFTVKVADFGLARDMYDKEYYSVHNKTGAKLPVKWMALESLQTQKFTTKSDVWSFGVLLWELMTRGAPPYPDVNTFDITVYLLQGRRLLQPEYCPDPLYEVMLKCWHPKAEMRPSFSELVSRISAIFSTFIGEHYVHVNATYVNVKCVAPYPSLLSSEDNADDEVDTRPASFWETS
The next data set deals with Jak-2 (Homo sapiens, UniProt O60674).
Jak-2, sequence (O60674 whole entry, species assumed): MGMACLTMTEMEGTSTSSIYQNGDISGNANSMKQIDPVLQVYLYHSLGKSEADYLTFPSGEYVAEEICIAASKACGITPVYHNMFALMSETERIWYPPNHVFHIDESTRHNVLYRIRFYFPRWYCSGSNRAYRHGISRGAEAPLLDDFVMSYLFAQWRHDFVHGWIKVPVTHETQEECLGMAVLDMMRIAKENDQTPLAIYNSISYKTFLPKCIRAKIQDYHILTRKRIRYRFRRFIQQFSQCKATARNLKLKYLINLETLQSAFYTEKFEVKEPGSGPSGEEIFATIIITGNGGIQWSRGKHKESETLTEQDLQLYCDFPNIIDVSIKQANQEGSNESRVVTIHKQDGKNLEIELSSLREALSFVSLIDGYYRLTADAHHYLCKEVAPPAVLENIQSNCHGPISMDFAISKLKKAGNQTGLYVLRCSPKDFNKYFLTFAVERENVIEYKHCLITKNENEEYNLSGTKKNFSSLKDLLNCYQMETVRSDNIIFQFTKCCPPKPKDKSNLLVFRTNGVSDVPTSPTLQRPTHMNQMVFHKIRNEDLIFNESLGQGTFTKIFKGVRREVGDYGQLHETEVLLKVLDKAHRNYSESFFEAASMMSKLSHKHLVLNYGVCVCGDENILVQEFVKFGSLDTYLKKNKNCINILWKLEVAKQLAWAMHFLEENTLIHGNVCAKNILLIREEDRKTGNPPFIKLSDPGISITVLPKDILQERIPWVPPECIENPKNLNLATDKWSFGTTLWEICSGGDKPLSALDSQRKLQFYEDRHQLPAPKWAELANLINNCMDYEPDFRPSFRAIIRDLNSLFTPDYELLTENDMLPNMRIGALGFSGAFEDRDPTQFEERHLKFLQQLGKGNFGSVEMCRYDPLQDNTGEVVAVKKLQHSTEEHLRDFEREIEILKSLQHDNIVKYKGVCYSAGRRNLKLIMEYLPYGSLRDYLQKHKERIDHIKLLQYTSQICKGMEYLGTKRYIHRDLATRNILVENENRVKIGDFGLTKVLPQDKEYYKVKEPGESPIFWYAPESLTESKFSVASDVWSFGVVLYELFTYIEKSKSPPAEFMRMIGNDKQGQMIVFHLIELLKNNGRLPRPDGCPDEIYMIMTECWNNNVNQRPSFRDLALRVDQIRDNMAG
Data set [2] deals with receptor for stem cell factor (Homo sapiens, UniProt P10721).
receptor for stem cell factor, sequence (P10721 26-976): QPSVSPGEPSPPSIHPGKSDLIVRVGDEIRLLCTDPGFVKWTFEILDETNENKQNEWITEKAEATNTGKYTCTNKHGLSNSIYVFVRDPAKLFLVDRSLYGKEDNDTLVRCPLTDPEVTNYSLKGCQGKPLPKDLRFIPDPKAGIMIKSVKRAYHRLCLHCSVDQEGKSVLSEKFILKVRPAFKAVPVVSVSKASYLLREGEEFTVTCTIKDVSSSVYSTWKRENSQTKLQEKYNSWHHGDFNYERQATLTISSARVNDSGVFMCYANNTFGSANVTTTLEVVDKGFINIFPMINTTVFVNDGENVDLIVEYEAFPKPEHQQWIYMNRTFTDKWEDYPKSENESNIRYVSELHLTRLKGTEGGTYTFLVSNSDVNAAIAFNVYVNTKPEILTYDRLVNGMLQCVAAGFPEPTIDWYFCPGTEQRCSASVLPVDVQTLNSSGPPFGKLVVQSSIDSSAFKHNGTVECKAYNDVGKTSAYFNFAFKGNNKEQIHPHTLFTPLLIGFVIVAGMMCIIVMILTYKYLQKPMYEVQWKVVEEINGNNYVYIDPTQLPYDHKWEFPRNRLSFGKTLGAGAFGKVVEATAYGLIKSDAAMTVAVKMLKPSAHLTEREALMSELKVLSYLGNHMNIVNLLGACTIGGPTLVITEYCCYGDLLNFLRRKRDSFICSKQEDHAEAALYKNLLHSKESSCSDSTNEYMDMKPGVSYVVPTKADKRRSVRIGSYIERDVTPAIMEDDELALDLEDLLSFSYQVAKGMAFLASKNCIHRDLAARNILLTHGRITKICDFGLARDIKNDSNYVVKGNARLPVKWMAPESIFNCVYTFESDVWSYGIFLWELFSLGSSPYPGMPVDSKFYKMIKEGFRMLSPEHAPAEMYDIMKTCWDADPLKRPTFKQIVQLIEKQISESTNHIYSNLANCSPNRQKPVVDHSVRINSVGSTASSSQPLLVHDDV

For `Cc1ccc(NC(=O)c2ccc(CN3CCN(C)CC3)cc2)cc1Nc1nccc(-c2cccnc2)n1` [Imatinib, N-{5-[4-(4-methyl-piperazino-methyl)-benzoylamido]-2-methylphenyl}-4-(3-pyridyl)-2-pyrimidine-amine], in data set [1], the “inhibition of PDGF receptor tyrosine kinases” value is on record as “selectively inhibits”. Further, on α-PDGF receptor, the “inhibition of kinase activity of α-PDGF receptor” value is given as “potently inhibit”. The “inhibition of kinase activity of β-PDGF receptor” value on β-PDGF receptor was “potently inhibit”. The “inhibition of c-Met” value at c-Met is “no inhibition”. The “inhibition of Jak-2” value on Jak-2 is listed as “no inhibition”. Moreover, in data set [2], the “inhibition of kinase activity of the receptor for stem cell factor” value was “potently inhibit”.
